Test results taken from US20140242120A1, “SUBSTITUTED AROMATIC COMPOUNDS FOR INFLAMMATION AND IMMUNE-RELATED USES” (Synta Pharmaceuticals Corp., priority 2006, published 2014).

system: IL-2 production; test: Inhibition of IL-2 production in PHA-activated Jurkat cells (ELISA); assay type: cell-based; conditions: Homo sapiens, PHA 2.5 μg/mL, 20 hours, IL-2 ELISA
Protocol: Jurkat cells were placed in a 96 well plate (0.5 million cells per well in 1% FBS medium) then a test compound of this invention was added at different concentrations. After 10 minutes, the cells were activated with PHA. (final concentration 2.5 μg/mL) and incubated for 20 hours at 37° C. under CO2. The final volume was 200 μL. Following incubation, the cells were centrifuged and the supernatants collected and stored at −70° C. prior to assaying for IL-2 production. A commercial ELISA kit (IL-2 Eli-pair, Diaclone Research, Besancon, France) was used to detect production of IL-2, from which dose response curves were obtained. The IC50 value was calculated as the concentration at which 50% of maximum IL-2 production after stimulation was inhibited versus a non-stimulation control.

Row | SMILES | IC50 [nM]
1 | Cc1ccc(-c2ncco2)cc1-c1ccc(NS(=O)(=O)c2c(F)cccc2F)cc1 [Compound 1, 2,6-Difluoro-N-(2′-methyl-5′-oxazol-2-yl-biphenyl-4-yl)-benzenesulfonamide] | 50 to 500
2 | Cc1ccc(-c2ncco2)cc1-c1ccc(/N=C/c2c(F)cccc2F)cc1 [Compound 76, (E)-N-(2,6-difluorobenzylidene)-2′-methyl-5′-(oxazol-2-yl)biphenyl-4-amine] | 500 to 1000
3 | COC(=O)c1ccc(C)c(-c2ccc(NNC(=O)c3c(F)cccc3F)cc2)c1 [Compound 77, methyl 4′-(2-(2,6-difluorobenzoyl) hydrazinyl)-6-methylbiphenyl-3-carboxylate] | 50 to 500

Continued, values first:

Row | IC50 [nM] | SMILES
4 | < 25 | Cc1ccc(-c2cnco2)cc1-c1ccc(NC(=O)Nc2c(F)cccc2F)cc1 [Compound 4, 1-(2,6-Difluoro-phenyl)-3-(2′-methyl-5′-oxazol-5-yl-biphenyl-4-yl)-urea]
5 | 25 to 50 | Cc1ccc(-c2ncco2)cc1-c1ccc(NC(=O)Nc2ncncc2C)cc1 [Compound 74, 1-(2′-Methyl-5′-(oxazol-2-yl)biphenyl-4-yl)-3-(5-methylpyrimidin-4-yl)urea]
